Measured values taken from patent publication US12369577B2, “Monoterpenoid/phenylpropanoid-containing compounds and methods of their making and use as baits” (KITTRICH CORPORATION, priority 2016, dated 2025).
Entries after “also recorded” stand apart in the source; their conditions may differ.

What was measured:
[1] = test system: house flies (Musca domestica); experiment: House fly feeding assay, solid food, choice assay; format: in vivo; details: 15% w/w food; treated and untreated food; 5-days post exposure (FIG. 6)
Description: The choice assay included one untreated food source of 1:1 evaporated milk powder and sucrose and one treated food source (with toxic biorational compounds) comprised of the same materials. Moreover, toxic insecticidal bait compounds were incorporated into the food mixture at a concentration of 15% w/w food. This increased concentration of toxic insecticidal bait was chosen to account for the concomitant lower percentage mortality expected due to the presence of both a treated and untreated food source. Mortality was recorded at 5-days post exposure.
Data is presented as average percentage mortality with the standard error of the mean (SEM). This number was compared to the total number of flies introduced to each aquaria for each replicate, and a percentage mortality was calculated. A minimum of three replicates were performed for each compound.

[2] = test system: house flies (Musca domestica); details: in vivo
Protocol: House flies (Musca domestica) were obtained from an established colony maintained by the Pesticide Toxicology Laboratory, Department of Entomology at iowa State University, Ames IA Flies were maintained according to standard laboratory protocols. House flies were supplied with water via cotton wick and solid support of sugar and dry milk (mixed 1:1), ad libitum. Prior to testing, house flies were maintained at a temperature of 24±2° C., were held at 30%±10% relative humidity, and a 12:12 hr light:dark photoperiod. Flies were randomly chosen from one of three separate Bioquip BugDorm® cages on different days to prevent a potential bias in health.

[3] = test system: house flies (Musca domestica); experiment: House fly feeding assay, solid food, non-choice; format: in vivo; details: 5% weight/weight food compound plus 0.5% Z-9-tricosene (Muscalure) (FIG. 5)
Description: Approximately 20-30 adult house flies (Musca domestica) were introduced into aquaria (2.5 gallon) with a French square filled with de-ionized water. Cotton dental wicks were used to draw water up and present it to flies at the top of the French square. Different concentrations of compounds were introduced into 1:1 mixtures of evaporated milk powder and sucrose. 2 grams of food was provided to flies with compound incorporated at various weights by weight food. If the material was solid, a mortar and pestle was used to homogenize the crushed evaporated milk powder, sucrose, and compound. If the material was a liquid, it was dissolved in acetone and aliquotted into the food slowly until the desired concentration of compound by weight food was achieved. If acetone was used as the carrier throughout the experiment, the food was carefully stirred repeatedly to ensure evaporation so that no more acetone was present in the food. The concentration used to assess mortality was 5% weight compound by weight food. Total mortality was assessed at 5 days after introducing house flies into individual mason jars with food treated with different compounds. […]
Data is presented as average percentage mortality with the standard error of the mean (SEM). This number was compared to the total number of flies introduced to each aquaria for each replicate, and a percentage mortality was calculated. […]

[4] = test system: German cockroaches (Blattella germanica); experiment: German cockroach feeding assay (compound in crushed Cheerios); format: in vivo; details: for percentage mortality compared to the control at two weeks / percentage mortality compared to the control: 3.75% weight compound/weight food; for percentage mortality compared to the control at two weeks: α=0.05 (FIG. 2); for percentage mortality compared to the control: 1, 2, and 3 weeks (FIG. 1); for mortality at two weeks: 15% w/w food, two weeks (FIG. 3)
Protocol: Insects were kept in a constant 12:12-hour light: dark cycle and fed a diet of dry cat food (Purina® Cat Chow Complete®, rolled oats (HyVEE® Old Fashioned Oats), and Fluker's® Cricket Quencher.
Five adult German cockroaches (Blattella germanica) were introduced to mason jars with steel mesh at the top to prevent escape. 266.6 mg of crushed Cheerios™ (approximately two cheerios) was mixed with compound at varying concentrations by weight food. If the material was solid, a mortar and pestle was used to homogenize the crushed Cheerios and compound. If the material was a liquid, it was dissolved in acetone and aliquoted into the food slowly until the desired concentration of compound by weight food was achieved. If acetone was used as the carrier throughout the experiment, the food was carefully stirred repeatedly to ensure evaporation so that no more acetone was present in the food. This was done to prevent mortality due to the presence of solvent in the treated food. Controls consisted of food that was treated with approximately 1 mL of just acetone. […] Concentrations used to assess mortality were 3.75% and 15% weight compound by weight food. Total mortality was assessed at 2 weeks after introducing cockroaches into individual mason jars with food treated with different compounds.
Data is presented as average percentage mortality with the standard error of the mean (SEM). A minimum of three replicates were performed for each compound and a ANOVA with a post-hoc Student Newman-Kuels test was performed to compare individual treatments to the control (α=0.05).

[5] = test system: Northern house mosquitoes (Culex pipiens); details: 0.1%

CC(C)=CCCC(C)CCOC(=O)COc1cc(C)ccc1C(C)C (centres unmarked)
toxicity and palatability in choice assay [1]: significant levels of toxicity

CCCCCOC(=O)COc1cc(C)ccc1C(C)C [amyl ester of thymyloxyacetic acid, amyl thymyloxyacetate]
toxicity and palatability in choice assay [1]: significant levels of toxicity

OB(O)O [boric acid, reference compound]
percentage mortality at 120 hours [2]: 100%

O=C(CCCCC(=O)OC/C=C/c1ccccc1)OC/C=C/c1ccccc1 [dicinnamyl adipate]
percentage mortality with added Z-9-tricosene [3]: higher percentage mortality; also recorded: increased toxicity

CC(C)=CCCC(C)CC(=O)OCC(O)COC(=O)CC(C)CCC=C(C)C (centres unmarked) [dicitronelloyl glycerol, dicitronelloylglycerol]
percentage mortality compared to the control at two weeks [4]: statistically significant percentage mortality compared to the control

CC(C)=CCCC(C)CC(=O)OCCOC(=O)CC(C)CCC=C(C)C (centres unmarked) [ethylene dicitronellate]
percentage mortality compared to the control [4]: considerably higher percentage mortality at all time points compared to the control group | percentage mortality compared to the control ([4]; listed as Ethylene dicitronellate): considerably higher percentage mortality compared to the control | percentage mortality compared to the control at two weeks [4]: statistically significant percentage mortality compared to the control | mortality at two weeks [4]: 100%

CC(C)=CCC/C(C)=C/COC(=O)COc1cc(C)ccc1C(C)C [geranyl thymyloxyacetate]
toxicity and palatability in choice assay [1]: significant levels of toxicity

CC(C)=CCCC(C)CC(=O)OC1C(OC(=O)CC(C)CCC=C(C)C)C(OC(=O)CC(C)CCC=C(C)C)C(OC(=O)CC(C)CCC=C(C)C)C(OC(=O)CC(C)CCC=C(C)C)C1OC(=O)CC(C)CCC=C(C)C (centres unmarked) [hexacitronellyl inositol, hexacitronelloylinositol]
mortality at two weeks [4]: 100%

Cc1ccc(C(C)C)c(OCC(=O)OC(C)C)c1 [isopropyl ester of thymyloxyacetic acid]
toxicity and palatability in choice assay [1]: significant levels of toxicity

Cc1ccc(C(C)C)c(O)c1 [thymol, reference compound]
percentage mortality at 120 hours [2]: 25±10.7%

Cc1ccc(C(C)C)c(OCC(=O)O)c1 [thymyloxyacetic acid]
mortality compared with boric acid [2]: performed similarly | percentage mortality at 48 hours [2]: 26.7% | percentage mortality at 72 hours [2]: 80% | percentage mortality at 96 hours [2]: 93.3% | percentage mortality at 120 hours [2]: 100% | percentage mortality compared to boric acid (FIG. 8 legend) ([5]; 96, 120, and 144 hours): higher numerical percentage mortality than boric acid | percentage mortality compared to the sucrose-only control ([5]; 96, 120, and 144 hours (FIG. 8)): statistically significant percentage mortality compared to the sucrose-only control | percentage mortality compared to boric acid ([5]; 120 and 144 hours): much higher numerical percentage mortality compared to boric acid | maximum percentage mortality ([5]; 144 hours after introduction): 95±3.53% | performance compared with boric acid ([5]; all time points, lack of statistical significance): performed as well as boric acid
